From US11375716B2, “Acetyl-CoA carboxylase modulators” (Monsanto Technology LLC, priority 2013, dated 2022)
Where two headings read alike, the source gives them in different places.

Columns and labels:
[1] = molecular target: Ustilago maydis acetyl CoA carboxylase (ACCase) (Ustilago maydis, UniProt A0A0D1DYD5); experiment: ACCase enzymatic assay (PK/LDH-coupled, NADH OD340); type: biochemical
Protocol: Ustilago maydis acetyl CoA carboxylase (ACCase) was cloned, expressed, and purified as described (Weatherly et al, Biochem. J., 2004) and the test compounds were tested in a 96-well plate format. Primary in vitro screening consisted of obtaining dose response data at 100, 33, 10, and 1 μM inhibitor. Actives in the primary screen were re-tested to establish IC50 values.
Direct detection of the conversion of acetyl CoA to malonyl CoA by ACCase was not feasible, but during this process ATP is converted to ADP which allowed for detection through a standard reaction coupling with ADP recycling to the oxidation of NADH. Thus, ACCase activity was measured via kinetic OD340 measurements of the conversion of NADH to NAD in a coupled reaction involving the conversion of phosphoenolpyruvate (PEP) to lactate.
The complete 200 ul reaction mixture contained 52.5 mM HEPES (pH8), 2.625 mM MgCl2, 1 mM ATP, 0.525 mM DTT, 11 mM NaHCO3, 1% DMSO with or without inhibitor, lx pyruvate kinase/lactate dehydrogenase (PK/LDH), 0.3 mM NADH, 0.5 mM PEP, and 5 μg ACCase. The reactions were incubated at 30° C. for 10 minutes and then initiated by the addition of 0.33 mM acetyl CoA. The initiated reactions were read immediately via plate reader at OD340 and kinetic readings were acquired every 20 s for 15 minutes while keeping the temperature at 30° C.
A slope of the kinetic curve was determined by using the 2 to 7 minute data which was then calculated as percent inhibition relative to the no inhibitor control.
The primary screens were conducted in duplicate and the IC50's conducted in triplicate. Averages were reported along with standard deviation calculation to generate error bars.
Each plate contained its own controls and consisted of a DMSO only control, 5-fold titration series of soraphen from 2 μM to 3.2 nM, and an ADP coupled reaction control.
In order to effectively screen out non-specific modulators of pyruvate kinase and lactate dehydrogenase (the coupled portion of the reaction), a PK/LDH inhibition test was developed. The complete 200 μl reaction mixture contained 52.5 mM HEPES (pH8), 2.625 mM MgCl2, 0.525 mM DTT, 11 mM NaHCO3, 1% DMSO with or without inhibitor, 1× pyruvate kinase/lactate dehydrogenase (PK/LDH), 0.3 mM NADH, and 0.5 mM PEP. The reactions were incubated at 30° C. for 10 minutes and then initiated by the addition of 66 μM ADP. The initiated reactions were read immediately via plate reader at OD340 and kinetic readings were acquired every 20 s for 15 minutes while remaining at 30° C.
A slope of the kinetic curve was determined by using the 2 to 7 minute data which was then calculated as percent inhibition relative to the no inhibitor control. Those compounds which had no significant PK/LDH inhibition at or above the IC50 in the ACCase assay, were considered to be valid modulators of only ACCase.

Botrytis cinerea = experiment: Fungal growth inhibition assay, B. cinerea; type: cell-based
Excerpt: Spores were isolated from previously sub-cultured plates of Botrytis cinerea, Phytophthora capsici, Fusarium moniliforme, Fusarium viguliforme, Collectotrichum graminicola, and Diplodia maydis. All spores were filtered and collected in a sterile glass bowl to isolate the spores from the mycelia. The isolation and sub-culture plate condition for each pathogen is described below.
Spore isolation for B. cinerea: A 2-3 week old V8 (17%)+CaCO3 (3 g/L)+20 g agar plate was removed from room temperature and the mycelia were treated with 5-10 ml of filter sterilized Triton X 100 (0.05%). The mycelia were scraped to re-suspend the spores. The spores were then collected in a sterile filter bowl containing a fluted piece of filter paper and poured into a conical tube.
After spore isolation, pathogen spores were counted on a hemocytometer to calculate the spores/ml. In 17% V8 liquid media containing 3 g/L CaCO3, isolated spores were diluted to individual concentrations based on the growth curves at 48 hours of each pathogen. […]
In a 96-well plate the spore solution, chemistries, and controls were combined to make the final solution concentrations mentioned above. Upon addition of the chemistry, an OD600 reading was done to assess chemical precipitation. […] Plate readings were repeated at 24 and 48 hrs. […]

[2] = Table 1A, read-out: ACCase Inhibitory Activity IC50
[3] = Table 1B, racemates and single enantiomers, read-out: ACCase Inhibitory Activity of Racemic Mixtures and Single Enantiomers IC50

Ustilago maydis acetyl CoA carboxylase (ACCase), sequence (A0A0D1DYD5 1-2185): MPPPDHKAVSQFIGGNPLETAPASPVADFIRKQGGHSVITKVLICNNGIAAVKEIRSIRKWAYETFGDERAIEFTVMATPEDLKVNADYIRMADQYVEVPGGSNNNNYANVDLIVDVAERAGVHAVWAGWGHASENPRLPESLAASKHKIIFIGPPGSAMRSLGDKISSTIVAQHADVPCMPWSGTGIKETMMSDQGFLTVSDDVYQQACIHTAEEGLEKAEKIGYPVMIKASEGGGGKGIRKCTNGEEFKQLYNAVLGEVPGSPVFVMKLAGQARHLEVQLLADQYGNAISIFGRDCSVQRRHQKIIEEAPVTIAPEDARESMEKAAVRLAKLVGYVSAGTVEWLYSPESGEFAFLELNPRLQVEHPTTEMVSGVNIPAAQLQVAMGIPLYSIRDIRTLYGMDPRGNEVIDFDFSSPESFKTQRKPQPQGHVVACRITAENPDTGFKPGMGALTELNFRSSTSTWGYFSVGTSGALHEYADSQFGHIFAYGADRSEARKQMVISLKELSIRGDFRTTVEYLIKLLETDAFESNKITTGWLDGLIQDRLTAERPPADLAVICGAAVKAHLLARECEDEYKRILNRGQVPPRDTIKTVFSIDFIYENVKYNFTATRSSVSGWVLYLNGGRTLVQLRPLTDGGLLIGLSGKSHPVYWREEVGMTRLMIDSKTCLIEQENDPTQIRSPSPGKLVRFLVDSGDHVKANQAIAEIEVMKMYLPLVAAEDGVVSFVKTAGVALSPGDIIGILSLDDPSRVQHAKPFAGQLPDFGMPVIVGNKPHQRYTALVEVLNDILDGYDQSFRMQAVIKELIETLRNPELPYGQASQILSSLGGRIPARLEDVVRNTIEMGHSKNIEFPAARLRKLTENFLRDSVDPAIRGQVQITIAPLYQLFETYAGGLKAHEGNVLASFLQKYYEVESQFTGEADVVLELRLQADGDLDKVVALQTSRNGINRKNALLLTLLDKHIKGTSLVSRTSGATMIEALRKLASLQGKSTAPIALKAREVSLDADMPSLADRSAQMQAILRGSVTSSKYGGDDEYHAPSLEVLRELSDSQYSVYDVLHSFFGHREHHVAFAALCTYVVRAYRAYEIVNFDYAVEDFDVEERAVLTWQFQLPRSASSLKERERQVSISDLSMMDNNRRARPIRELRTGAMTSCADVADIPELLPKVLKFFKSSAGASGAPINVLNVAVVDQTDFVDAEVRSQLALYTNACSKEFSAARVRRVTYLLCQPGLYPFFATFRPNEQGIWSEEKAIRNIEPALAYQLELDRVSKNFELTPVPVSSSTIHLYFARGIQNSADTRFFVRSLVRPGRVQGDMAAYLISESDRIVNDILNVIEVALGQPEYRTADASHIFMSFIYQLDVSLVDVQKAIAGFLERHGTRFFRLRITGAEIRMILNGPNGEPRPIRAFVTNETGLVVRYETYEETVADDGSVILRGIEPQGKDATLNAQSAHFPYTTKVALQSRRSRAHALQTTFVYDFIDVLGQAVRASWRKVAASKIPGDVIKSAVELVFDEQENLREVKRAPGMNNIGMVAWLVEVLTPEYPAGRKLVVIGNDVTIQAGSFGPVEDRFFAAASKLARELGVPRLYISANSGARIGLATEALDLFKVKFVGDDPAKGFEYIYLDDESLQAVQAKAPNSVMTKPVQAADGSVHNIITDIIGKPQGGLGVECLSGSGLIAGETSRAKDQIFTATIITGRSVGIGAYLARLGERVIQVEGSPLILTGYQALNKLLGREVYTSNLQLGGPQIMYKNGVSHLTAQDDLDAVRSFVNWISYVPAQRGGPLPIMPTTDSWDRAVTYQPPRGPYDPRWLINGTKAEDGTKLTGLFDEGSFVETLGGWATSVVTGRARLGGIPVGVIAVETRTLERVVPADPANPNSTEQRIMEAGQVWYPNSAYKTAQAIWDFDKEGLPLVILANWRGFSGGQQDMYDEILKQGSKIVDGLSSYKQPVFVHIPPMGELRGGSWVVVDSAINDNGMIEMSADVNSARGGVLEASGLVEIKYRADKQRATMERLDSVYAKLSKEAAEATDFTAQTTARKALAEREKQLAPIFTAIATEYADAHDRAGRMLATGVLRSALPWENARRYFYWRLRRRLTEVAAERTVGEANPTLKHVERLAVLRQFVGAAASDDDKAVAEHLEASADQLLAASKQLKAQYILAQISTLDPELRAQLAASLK

Question: How did the IC50 [1, 2] turn out when “2-((3-cyano-4-(4-methoxyphenyl)-6-(1-oxidothiophen-2-yl)pyridin-2-yl)oxy)-2-phenylacetic acid [Formula Ia-xxviii]” was run?
Answer: 196 nM

Question: What about the “B. cinerea % growth inhibition at 48 hours” value (Botrytis cinerea; 2 ppm) of the same compound?
Answer: 14%

Question: What about the “B. cinerea % growth inhibition at 48 hours” value (Botrytis cinerea; 10 ppm) of the same compound?
Answer: 27%

Question: Which results are given for `N#Cc1c(-c2cccs2)cc(-c2cccs2)nc1SC(C(=O)O)c1ccccc1` (racemic) [Formula Ia-iii, 2-((3-cyano-4,6-di(thiophen-2-yl)pyridin-2-yl)thio)-2-phenylacetic acid]?
Answer: IC50 [1, 2]: 616 nM; IC50 [1, 3]: 439 nM

Question: With `COc1ccc(-c2cc(-c3cccs3)nc(SC(C(=O)O)c3ccccc3)c2C#N)cc1` (racemic) [Formula Ia-xiv, 2-((3-cyano-4-(4-methoxyphenyl)-6-(thiophen-2-yl)pyridin-2-yl)thio)-2-phenylacetic acid] as the compound, how does the IC50 [1, 2] read?
Answer: 60 nM

Question: Which IC50 [1, 3] does the source give for `N#Cc1c(C(F)(F)F)cc(-c2cccs2)nc1S[C@H](C(=O)O)c1ccccc1` (single isomer, unassigned) [Formula Ia-ii-e2, 2-((3-cyano-6-(thiophen-2-yl)-4-(trifluoromethyl)pyridin-2-yl)thio)-2-phenylacetic acid] here?
Answer: 1210 nM
